From paper PMC9274755, “KDM4 inhibitor SD49-7 attenuates leukemia stem cell via KDM4A/MDM2/p21^CIP1 axis” (Theranostics, 2022) come the findings set out here.

Assay [1] has as its target T1, KDM4C (Homo sapiens, UniProt Q9H3R0).
T1 sequence (Q9H3R0 1-1056): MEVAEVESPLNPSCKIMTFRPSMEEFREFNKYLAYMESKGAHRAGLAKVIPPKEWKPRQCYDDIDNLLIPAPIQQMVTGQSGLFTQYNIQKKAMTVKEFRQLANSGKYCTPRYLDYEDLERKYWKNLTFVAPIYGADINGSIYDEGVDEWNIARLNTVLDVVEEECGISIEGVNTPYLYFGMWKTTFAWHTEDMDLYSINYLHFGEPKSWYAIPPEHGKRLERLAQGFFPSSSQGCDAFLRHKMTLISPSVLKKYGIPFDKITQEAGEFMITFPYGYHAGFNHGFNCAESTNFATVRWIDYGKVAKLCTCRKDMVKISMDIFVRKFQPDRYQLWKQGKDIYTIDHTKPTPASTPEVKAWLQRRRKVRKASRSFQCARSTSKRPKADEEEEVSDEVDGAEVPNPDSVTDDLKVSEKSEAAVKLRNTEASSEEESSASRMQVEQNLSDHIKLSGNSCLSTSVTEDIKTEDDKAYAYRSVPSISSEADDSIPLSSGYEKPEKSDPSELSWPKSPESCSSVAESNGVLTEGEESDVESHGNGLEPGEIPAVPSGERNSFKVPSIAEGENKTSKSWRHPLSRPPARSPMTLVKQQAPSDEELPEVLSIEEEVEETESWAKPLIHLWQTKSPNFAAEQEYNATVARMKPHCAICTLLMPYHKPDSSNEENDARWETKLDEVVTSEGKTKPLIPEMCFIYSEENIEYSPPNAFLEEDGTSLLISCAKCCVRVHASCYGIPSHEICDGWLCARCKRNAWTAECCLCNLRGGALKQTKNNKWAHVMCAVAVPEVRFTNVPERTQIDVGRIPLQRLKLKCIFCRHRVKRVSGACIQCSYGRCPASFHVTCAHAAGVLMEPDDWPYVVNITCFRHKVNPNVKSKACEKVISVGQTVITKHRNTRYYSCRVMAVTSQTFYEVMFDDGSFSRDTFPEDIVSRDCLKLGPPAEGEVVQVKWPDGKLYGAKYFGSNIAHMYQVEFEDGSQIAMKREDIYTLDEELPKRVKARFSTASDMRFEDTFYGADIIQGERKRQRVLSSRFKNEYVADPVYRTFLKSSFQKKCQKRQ
In words: SPR (Biacore T200), protein immobilized on CM5 chip. Format: binding. On the technique in general: Surface plasmon resonance follows binding to a sensor surface in real time, without labels.

The target in assay [2] is T2, KDM4A (Homo sapiens, UniProt O75164).
T2 sequence (O75164 2-1064): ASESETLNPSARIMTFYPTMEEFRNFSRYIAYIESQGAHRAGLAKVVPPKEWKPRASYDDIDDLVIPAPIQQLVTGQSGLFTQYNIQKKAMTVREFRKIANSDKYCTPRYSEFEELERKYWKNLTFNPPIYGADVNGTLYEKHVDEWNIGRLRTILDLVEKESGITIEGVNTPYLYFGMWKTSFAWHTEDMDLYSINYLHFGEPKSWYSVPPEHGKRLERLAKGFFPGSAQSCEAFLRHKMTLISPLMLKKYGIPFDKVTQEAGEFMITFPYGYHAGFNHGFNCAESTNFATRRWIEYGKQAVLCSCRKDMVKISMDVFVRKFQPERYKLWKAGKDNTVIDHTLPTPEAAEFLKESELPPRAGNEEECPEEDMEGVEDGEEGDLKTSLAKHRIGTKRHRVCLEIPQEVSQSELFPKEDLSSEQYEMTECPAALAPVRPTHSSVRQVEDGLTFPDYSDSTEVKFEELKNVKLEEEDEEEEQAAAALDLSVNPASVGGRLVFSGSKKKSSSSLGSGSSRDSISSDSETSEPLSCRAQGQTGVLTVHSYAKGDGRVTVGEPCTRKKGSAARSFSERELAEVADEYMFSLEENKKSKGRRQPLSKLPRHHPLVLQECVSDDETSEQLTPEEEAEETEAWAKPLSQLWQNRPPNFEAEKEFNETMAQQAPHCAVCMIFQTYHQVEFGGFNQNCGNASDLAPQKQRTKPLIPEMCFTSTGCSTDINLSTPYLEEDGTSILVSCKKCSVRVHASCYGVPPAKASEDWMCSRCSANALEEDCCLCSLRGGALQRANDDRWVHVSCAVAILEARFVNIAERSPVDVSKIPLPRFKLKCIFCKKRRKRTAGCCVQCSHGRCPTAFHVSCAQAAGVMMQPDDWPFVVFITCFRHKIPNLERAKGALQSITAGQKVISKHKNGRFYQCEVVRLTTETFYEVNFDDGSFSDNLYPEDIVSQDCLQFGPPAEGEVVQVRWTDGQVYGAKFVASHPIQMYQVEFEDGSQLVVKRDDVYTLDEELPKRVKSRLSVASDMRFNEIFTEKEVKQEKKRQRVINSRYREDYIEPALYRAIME
The description is as above. In kind it is binding.

On to `CC(C)C(=O)NC(c1ccco1)c1ccc2cccnc2c1O` (stereo not shown) [SD70], for which the figures for the Kd in assay [1] and in assay [2] were 2590 nM and 18000 nM, respectively.

Regarding `O=C(N/N=C/c1c(O)ccc2ccccc12)c1ccccc1O` [SD49-7], the results for the Kd in assay [1] and in assay [2] were 1060 nM and 988 nM, respectively.

As usually defined, the Kd is the equilibrium constant for the complex coming apart. A high value points to lower affinity.
